The numbers were not newly measured in US9034628B2, “Induction of gene expression using a high concentration sugar mixture” (Danisco US Inc., priority 2002, dated 2015), which cites them from elsewhere.

The data set has as its system main cellulase genes in Trichoderma, cbh1, cbh2, egl1, and egl2.

For the compound `OC[C@H]1O[C@@H](O[C@H]2C(O)O[C@H](CO)[C@@H](O)[C@@H]2O)[C@H](O)[C@@H](O)[C@@H]1O` (some centres unmarked) [sophorose], the “Expression of the cellulase genes” value (carbon source available for growth) is reported as “induced several thousand fold”. For the same compound, the “expression level of the major cellobiohydrolase 1 (cbh1)” value (media containing inducing carbon source compared with glucose containing media (Ilmen et al. 1997)) was “up-regulated several thousand fold”.
